Legend:
Format in all cases: cell-based, human
[1] = tested on: reporterless hiPSC line; test: Immunostaining of marker proteins in hiPSC-derived cardiac progenitor cells and cardiomyocytes
Experimental: For LV-cardiomyocyte differentiation, cardiac differentiation was performed according to the protocol published by (Lian et al., 2012, Proc Natl Acad Sci USA 109:[…]-57). Cells were dissociated with StemPro Accutase Cell Dissociation Reagent at 37° C. for 5 minutes. HESCs were seeded on Matrigel-coated 24-well plates (Corning) in StemFlex Medium supplemented with 10 μmol/[…] were seeded on iMatrix-511-coated 12-well plates (Corning) in StemFit A[…] supplemented with 10 μmol/[…] at seeding densities of 1×10^5 cells/cm^2 for hESCs and 1.25-2.5×10^4 cells/cm^2 for hiPSCs. Cells were cultured for 4 days until the start of differentiation (day 0). On day 0, the medium was changed to RPMI 1640 Medium (Thermo Fisher Scientific) supplemented with B-27 Supplement minus insulin (Thermo Fisher Scientific) (RPMI/B27-insulin) or B-27 Supplement with insulin (Thermo Fisher Scientific), and 12 μmol/L CHIR 99021 (SelleckChem, Houston, TX, United States), and the cells incubated in this medium for 24 h (day 1). On day 1, the medium was changed to RPMI/B27-insulin. […] On day 3, the medium was changed to RPMI/B27-insulin supplemented with 5 μmol/L IWP2 (SelleckChem) and on day 5, the medium was changed to 1 ml RPMI/B27-insulin. From day 7, the cells were cultured with RPMI/B27-insulin, and the cells were fed every other day. On day 12, the cells were washed with PBS (Thermo Fisher Scientific) and cultured with DMEM or RPMI, no glucose supplemented with 8 mmol/L L-(+)-Lactic acid (Merck) (Tohyama et al., 2013 Cell Stem Cell, 12:127-37). The medium was changed every other day until day 17. After day 17, the cells were cultured with RPMI/B27 and fed every 2 to 3 days. For long-term culture, the cells were dissociated with TrypLETM Select Enzyme (10×) (Thermo Fisher Scientific) at 37° C. for 15-20 minutes and seeded on Matrigel- or iMatrix-511-coated plates. […] For FIG. 15A and FIG. 15B, dorsomorphin (DM) or 3 μg/L insulin were added on day 0 (for 24 hours), 1, 3, or 5 (for 48 hours). Cells were plated on iMatrix-511-coated plates and fixed in 4% paraformaldehyde (Nacalai, Kyoto, Japan) for 15 minutes. Cells were permeabilized with 0.1% Triton X-100 (Sigma-Aldrich, St. Louis, MO, United States)/PBS and blocked with 10% goat serum (Sigma-Aldrich). Primary and secondary antibodies were diluted in 0.1% Triton X-100/PBS with 5% goat serum and stained with Hoechst 33342 (Thermo Fisher Scientific) at 1 μg/mL, mouse anti-cardiac troponin T monoclonal IgG1 (GTX28295, GeneTex, Irvine, CA, United States) diluted at 1:16000, mouse anti-α-actinin monoclonal IgG1 (A7811, Sigma-Aldrich) diluted at 1:1000, rabbit anti-MLC2v monoclonal IgG (ab92721, Abcam, Cambridge, United Kingdom) diluted at 1:500, rabbit anti-CXCR4 monoclonal IgG (ab181020, Abcam) diluted at 1:2000, rabbit anti-NKX2-5 monoclonal IgG (Cat #. […], Cell Signaling Technology, Danvers, MA, United States) diluted at 1:2500, mouse anti-Nav1.5 (Car #. ASC-013, Alomone Labs) diluted at 1:1000, rabbit anti-connexin 43 (Cat #. 83649, Cell Signaling Technology) diluted at 1:1000, and mouse anti-TBX5 monoclonal IgG2a (Cat #. sc-515536, Santa Cruz Biotechnology, Dallas, TX, United States) diluted at 1:500. These cells were then incubated with a secondary antibody, goat anti-mouse or rabbit polyclonal IgG conjugated with iFluor 488 or 555 (AAT Bioquest, Sunnyvale, CA, United States) diluted at 1:1000, for 1 hour at room temperature. The cells were then observed with IX71 (Olympus, Tokyo, Japan) or EVOS FL Auto (Thermo Fisher Scientific) and images processed with ImageJ ([…] al., 2012, Nat Methods, 9:671-5).

[2] = tested on: hPSC-CMs; test: Quantitative PCR of purified hiPSC-derived cardiomyocytes; conditions: DMH1-treated cell-derived cardiomyocytes at day 34
Experimental: For LV-cardiomyocyte differentiation, cardiac differentiation was performed according to the protocol published by (Lian et al., 2012, Proc Natl Acad Sci USA 109:[…]-57). Cells were dissociated with StemPro Accutase Cell Dissociation Reagent at 37° C. for 5 minutes. HESCs were seeded on Matrigel-coated 24-well plates (Corning) in StemFlex Medium supplemented with 10 μmol/[…] were seeded on iMatrix-511-coated 12-well plates (Corning) in StemFit A[…] supplemented with 10 μmol/[…] at seeding densities of 1×10^5 cells/cm^2 for hESCs and 1.25-2.5×10^4 cells/cm^2 for hiPSCs. Cells were cultured for 4 days until the start of differentiation (day 0). On day 0, the medium was changed to RPMI 1640 Medium (Thermo Fisher Scientific) supplemented with B-27 Supplement minus insulin (Thermo Fisher Scientific) (RPMI/B27-insulin) or B-27 Supplement with insulin (Thermo Fisher Scientific), and 12 μmol/L CHIR 99021 (SelleckChem, Houston, TX, United States), and the cells incubated in this medium for 24 h (day 1). On day 1, the medium was changed to RPMI/B27-insulin. […] PowerUpTM SYBR Green Master Mix (Thermo Fisher Scientific) and QuantStudio 1 (Thermo Fisher Scientific) were used for quantitative PCR (q-PCR), wherein q-PCR data were processed using the ΔΔCT method. […] Data were analyzed with the web-based tool of GeneGlobe Data Analysis Center (Qiagen).

[3] = tested on: hiPSC-derived cells; test: Flow cytometry of cardiac troponin T (cTnT); conditions: 1 μmol/L on day 0; day 12; n=4; mean±SD; control 82.1±2.6%, p=0.04
Experimental: For LV-cardiomyocyte differentiation, cardiac differentiation was performed according to the protocol published by (Lian et al., 2012, Proc Natl Acad Sci USA 109:[…]-57). Cells were dissociated with StemPro Accutase Cell Dissociation Reagent at 37° C. for 5 minutes. HESCs were seeded on Matrigel-coated 24-well plates (Corning) in StemFlex Medium supplemented with 10 μmol/[…] were seeded on iMatrix-511-coated 12-well plates (Corning) in StemFit A[…] supplemented with 10 μmol/[…] at seeding densities of 1×10^5 cells/cm^2 for hESCs and 1.25-2.5×10^4 cells/cm^2 for hiPSCs. Cells were cultured for 4 days until the start of differentiation (day 0). On day 0, the medium was changed to RPMI 1640 Medium (Thermo Fisher Scientific) supplemented with B-27 Supplement minus insulin (Thermo Fisher Scientific) (RPMI/B27-insulin) or B-27 Supplement with insulin (Thermo Fisher Scientific), and 12 μmol/L CHIR 99021 (SelleckChem, Houston, TX, United States), and the cells incubated in this medium for 24 h (day 1). On day 1, the medium was changed to RPMI/B27-insulin. […] On day 3, the medium was changed to RPMI/B27-insulin supplemented with 5 μmol/L IWP2 (SelleckChem) and on day 5, the medium was changed to 1 ml RPMI/B27-insulin. […] The cells were resuspended in 0.5% bovine serum albumin (Merck)/PBS and analyzed with an Attune NxT Flow Cytometer (Thermo Fisher Scientific).

Row | SMILES | CXCR4 expression (immunostaining) ([1]; 0.5 μmol/L on day 0, day 7) | MLC2v, ventricular marker protein (immunostaining) ([1]; 0.5 μmol/L on day 0, day 35) | NKX2-5-positive/cTnT-positive cardiomyocytes ([1]; DMH1 on differentiation day 0, day 10) | TBX5 expression (immunostaining) ([1]; DMH1 on differentiation day 0, day 10, dose-dependent) | immunostaining signal of Nav1.5 and Connexin 43 ([1]; cardiomyocytes day 34, vs control) | expression of TGFB1, COL1A1, COL1A2, COL3A1, and COL5A1 (qPCR) [2] | percentages of cTnT-positive cells [3] [%]
1 | CC(C)Oc1ccc(-c2cnc3c(-c4ccnc5ccccc45)cnn3c2)cc1 [DMH1, dorsomorphin homologue 1, reference compound] | upregulated | expressed | induced | reduced | reduction | reduced | –
2 | c1cc(-c2cnn3cc(-c4ccc(OCCN5CCCCC5)cc4)cnc23)ccn1 [dorsomorphin] | – | – | – | – | – | – | 70.4±7.3

From US20240271096A1, “EFFICIENT DIFFERENTIATION OF SECOND HEART FIELD CARDIAC PROGENITOR CELLS AND RIGHT VENTRICLE CARDIOMYOCYTES FROM HUMAN PLURIPOTENT STEM CELLS” (Wisconsin Alumni Research Foundation, priority 2023, published 2024)
